# Experimental data as given in ChEMBL document CHEMBL4152360 (Bioorg Med Chem, 2018).
# How the values were obtained:
# [1] = biological target: Casein kinase II subunit alpha (Homo sapiens, UniProt P68400); test: Displacement of ARC-1504/ARC-1513-5O from CK2alpha (unknown origin) (1 to 335 residues) after 15 to 60 mins by luminescence assay
# [2] = biological target: Mitogen-activated protein kinase kinase kinase 7 (Homo sapiens) (UniProt O43318); test: Inhibition of human TAK1 assessed as enzyme residual activity at 100 nM by radiometric filter binding assay relative to control
# [3] = biological target: AMP-activated protein kinase, AMPK (Homo sapiens) (UniProt P54646+O43741+P54619+Q9UGJ0+Q9Y478+Q13131+Q9UGI9); test: Inhibition of human AMPK assessed as enzyme residual activity at 100 nM by radiometric filter binding assay relative to control; assay type: protein-complex assay
# [4] = biological target: SRSF protein kinase 1 (Homo sapiens) (UniProt Q96SB4); test: Inhibition of human SRPK1 assessed as enzyme residual activity at 100 nM by radiometric filter binding assay relative to control
# [5] = biological target: Mitogen-activated protein kinase kinase kinase 11 (Homo sapiens) (UniProt Q16584); test: Inhibition of human MLK3 assessed as enzyme residual activity at 100 nM by radiometric filter binding assay relative to control
# [6] = biological target: Serine/threonine-protein kinase TBK1 (Homo sapiens) (UniProt Q9UHD2); test: Inhibition of human TBK1 assessed as enzyme residual activity at 100 nM by radiometric filter binding assay relative to control
# [7] = biological target: Serine/threonine-protein kinase PLK1 (Homo sapiens) (UniProt P53350); test: Inhibition of human PLK1 assessed as enzyme residual activity at 100 nM by radiometric filter binding assay relative to control
# [8] = biological target: Dual specificity protein kinase TTK (Homo sapiens) (UniProt P33981); test: Inhibition of human TTK assessed as enzyme residual activity at 100 nM by radiometric filter binding assay relative to control
# [9] = biological target: Vascular endothelial growth factor receptor 1 (Homo sapiens) (UniProt P17948); test: Inhibition of human VEGFR1 assessed as enzyme residual activity at 100 nM by radiometric filter binding assay relative to control
# [10] = biological target: Dual specificity mitogen-activated protein kinase kinase 1 (Homo sapiens) (UniProt Q02750); test: Inhibition of human MKK1 assessed as enzyme residual activity at 100 nM by radiometric filter binding assay relative to control
# [11] = biological target: High affinity nerve growth factor receptor (Homo sapiens) (UniProt P04629); test: Inhibition of human TRKA assessed as enzyme residual activity at 100 nM by radiometric filter binding assay relative to control
# [12] = biological target: Serine/threonine-protein kinase Chk2 (Homo sapiens) (UniProt O96017); test: Inhibition of human CHK2 assessed as enzyme residual activity at 100 nM by radiometric filter binding assay relative to control
# [13] = biological target: Interleukin-1 receptor-associated kinase 4 (Homo sapiens) (UniProt Q9NWZ3); test: Inhibition of human IRAK4 assessed as enzyme residual activity at 100 nM by radiometric filter binding assay relative to control
# [14] = biological target: Mitogen-activated protein kinase 14 (Homo sapiens) (UniProt Q16539); test: Inhibition of human p38alpha MAPK assessed as enzyme residual activity at 100 nM by radiometric filter binding assay relative to control
# [15] = biological target: Serine/threonine-protein kinase Nek6 (Homo sapiens) (UniProt Q9HC98); test: Inhibition of human NEK6 assessed as enzyme residual activity at 100 nM by radiometric filter binding assay relative to control
# [16] = biological target: Ribosomal protein S6 kinase beta-1 (Homo sapiens) (UniProt P23443); test: Inhibition of human S6K1 assessed as enzyme residual activity at 100 nM by radiometric filter binding assay relative to control
# [17] = biological target: RAC-alpha serine/threonine-protein kinase (Homo sapiens) (UniProt P31749); test: Inhibition of human PKBa assessed as enzyme residual activity at 100 nM by radiometric filter binding assay relative to control
# [18] = biological target: Serine/threonine-protein kinase STK11 (Homo sapiens) (UniProt Q15831); test: Inhibition of human LKB1 assessed as enzyme residual activity at 100 nM by radiometric filter binding assay relative to control
# [19] = biological target: Serine/threonine-protein kinase N2 (Homo sapiens) (UniProt Q16513); test: Inhibition of human PRK2 assessed as enzyme residual activity at 100 nM by radiometric filter binding assay relative to control
# [20] = biological target: Insulin-like growth factor 1 receptor (Homo sapiens) (UniProt P08069); test: Inhibition of human IGF1R assessed as enzyme residual activity at 100 nM by radiometric filter binding assay relative to control
# Serine/threonine-protein kinase STK11 (Homo sapiens), sequence (Q15831 whole entry): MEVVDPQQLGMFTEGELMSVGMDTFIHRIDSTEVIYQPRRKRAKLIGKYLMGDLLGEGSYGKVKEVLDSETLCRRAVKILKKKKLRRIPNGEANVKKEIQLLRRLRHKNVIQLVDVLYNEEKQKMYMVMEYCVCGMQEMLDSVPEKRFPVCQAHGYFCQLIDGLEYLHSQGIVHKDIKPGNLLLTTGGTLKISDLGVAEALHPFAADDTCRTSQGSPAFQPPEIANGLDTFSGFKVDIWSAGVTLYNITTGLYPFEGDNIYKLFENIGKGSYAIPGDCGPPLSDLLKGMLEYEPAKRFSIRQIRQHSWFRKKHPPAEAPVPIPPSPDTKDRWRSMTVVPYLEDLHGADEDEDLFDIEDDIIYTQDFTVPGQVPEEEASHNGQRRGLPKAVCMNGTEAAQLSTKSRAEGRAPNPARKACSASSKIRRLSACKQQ
# Casein kinase II subunit alpha, sequence (P68400 whole entry, the tested form may be a part): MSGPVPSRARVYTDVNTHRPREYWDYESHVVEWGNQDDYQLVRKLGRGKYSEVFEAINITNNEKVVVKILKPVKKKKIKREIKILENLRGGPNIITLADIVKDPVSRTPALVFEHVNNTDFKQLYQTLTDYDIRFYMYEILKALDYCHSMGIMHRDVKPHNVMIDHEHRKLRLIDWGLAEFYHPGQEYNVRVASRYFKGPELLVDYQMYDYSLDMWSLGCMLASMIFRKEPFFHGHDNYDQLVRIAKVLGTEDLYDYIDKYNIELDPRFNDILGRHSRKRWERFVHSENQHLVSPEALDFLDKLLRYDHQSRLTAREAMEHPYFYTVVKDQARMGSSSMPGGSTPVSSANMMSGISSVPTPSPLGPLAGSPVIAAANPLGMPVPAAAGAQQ
# RAC-alpha serine/threonine-protein kinase (Homo sapiens), sequence (P31749 whole entry): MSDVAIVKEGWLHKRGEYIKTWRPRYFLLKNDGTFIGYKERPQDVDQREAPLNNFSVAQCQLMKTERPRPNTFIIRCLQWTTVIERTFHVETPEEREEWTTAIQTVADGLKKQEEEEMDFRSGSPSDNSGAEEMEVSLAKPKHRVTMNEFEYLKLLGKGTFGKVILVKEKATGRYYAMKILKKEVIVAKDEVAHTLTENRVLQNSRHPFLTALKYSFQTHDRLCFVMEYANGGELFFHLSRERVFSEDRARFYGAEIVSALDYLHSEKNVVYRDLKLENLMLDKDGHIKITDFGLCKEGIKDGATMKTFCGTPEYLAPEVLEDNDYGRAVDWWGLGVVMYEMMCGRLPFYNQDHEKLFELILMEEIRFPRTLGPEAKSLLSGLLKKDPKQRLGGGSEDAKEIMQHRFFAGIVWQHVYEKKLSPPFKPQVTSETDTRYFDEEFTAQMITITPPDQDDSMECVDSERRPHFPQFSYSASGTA
# Serine/threonine-protein kinase PLK1 (Homo sapiens), sequence (P53350 whole entry): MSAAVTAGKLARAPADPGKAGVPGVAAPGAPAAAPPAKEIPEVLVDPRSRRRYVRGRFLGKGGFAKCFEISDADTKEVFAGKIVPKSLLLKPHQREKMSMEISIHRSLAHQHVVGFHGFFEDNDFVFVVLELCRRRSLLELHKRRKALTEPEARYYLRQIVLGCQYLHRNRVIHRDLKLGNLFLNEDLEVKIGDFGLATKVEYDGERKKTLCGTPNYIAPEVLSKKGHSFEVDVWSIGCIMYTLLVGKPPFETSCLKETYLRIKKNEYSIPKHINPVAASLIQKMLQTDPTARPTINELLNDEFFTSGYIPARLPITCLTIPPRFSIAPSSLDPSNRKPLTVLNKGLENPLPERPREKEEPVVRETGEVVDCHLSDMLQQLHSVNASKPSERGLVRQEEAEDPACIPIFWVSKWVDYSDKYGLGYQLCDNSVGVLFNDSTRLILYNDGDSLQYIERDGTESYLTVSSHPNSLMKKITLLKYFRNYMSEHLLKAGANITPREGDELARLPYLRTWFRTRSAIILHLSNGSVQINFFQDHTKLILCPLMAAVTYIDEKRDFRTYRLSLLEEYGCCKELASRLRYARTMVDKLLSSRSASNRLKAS
# Mitogen-activated protein kinase kinase kinase 11 (Homo sapiens), sequence (Q16584 whole entry, looked up): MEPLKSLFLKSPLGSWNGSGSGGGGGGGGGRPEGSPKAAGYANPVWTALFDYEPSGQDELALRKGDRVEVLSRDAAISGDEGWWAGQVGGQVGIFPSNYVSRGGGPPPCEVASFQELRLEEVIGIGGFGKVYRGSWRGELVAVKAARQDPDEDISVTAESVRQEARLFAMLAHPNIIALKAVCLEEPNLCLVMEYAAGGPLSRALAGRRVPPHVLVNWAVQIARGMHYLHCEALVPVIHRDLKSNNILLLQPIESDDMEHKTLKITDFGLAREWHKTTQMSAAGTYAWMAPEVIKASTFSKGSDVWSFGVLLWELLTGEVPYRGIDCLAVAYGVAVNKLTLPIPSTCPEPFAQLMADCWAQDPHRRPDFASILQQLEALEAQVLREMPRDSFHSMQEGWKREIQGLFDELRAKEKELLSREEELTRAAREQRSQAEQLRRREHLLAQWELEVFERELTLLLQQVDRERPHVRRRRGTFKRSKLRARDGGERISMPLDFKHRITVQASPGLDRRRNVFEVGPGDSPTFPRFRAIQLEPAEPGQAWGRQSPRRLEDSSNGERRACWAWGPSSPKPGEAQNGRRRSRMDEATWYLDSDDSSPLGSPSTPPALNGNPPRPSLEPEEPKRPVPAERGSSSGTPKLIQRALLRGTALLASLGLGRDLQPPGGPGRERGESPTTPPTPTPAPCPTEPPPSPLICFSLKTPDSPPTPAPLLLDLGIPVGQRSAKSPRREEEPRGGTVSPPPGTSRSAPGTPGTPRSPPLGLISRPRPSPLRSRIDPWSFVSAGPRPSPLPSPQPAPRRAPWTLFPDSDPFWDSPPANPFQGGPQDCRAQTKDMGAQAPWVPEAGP
# Serine/threonine-protein kinase N2 (Homo sapiens), sequence (Q16513 whole entry, looked up): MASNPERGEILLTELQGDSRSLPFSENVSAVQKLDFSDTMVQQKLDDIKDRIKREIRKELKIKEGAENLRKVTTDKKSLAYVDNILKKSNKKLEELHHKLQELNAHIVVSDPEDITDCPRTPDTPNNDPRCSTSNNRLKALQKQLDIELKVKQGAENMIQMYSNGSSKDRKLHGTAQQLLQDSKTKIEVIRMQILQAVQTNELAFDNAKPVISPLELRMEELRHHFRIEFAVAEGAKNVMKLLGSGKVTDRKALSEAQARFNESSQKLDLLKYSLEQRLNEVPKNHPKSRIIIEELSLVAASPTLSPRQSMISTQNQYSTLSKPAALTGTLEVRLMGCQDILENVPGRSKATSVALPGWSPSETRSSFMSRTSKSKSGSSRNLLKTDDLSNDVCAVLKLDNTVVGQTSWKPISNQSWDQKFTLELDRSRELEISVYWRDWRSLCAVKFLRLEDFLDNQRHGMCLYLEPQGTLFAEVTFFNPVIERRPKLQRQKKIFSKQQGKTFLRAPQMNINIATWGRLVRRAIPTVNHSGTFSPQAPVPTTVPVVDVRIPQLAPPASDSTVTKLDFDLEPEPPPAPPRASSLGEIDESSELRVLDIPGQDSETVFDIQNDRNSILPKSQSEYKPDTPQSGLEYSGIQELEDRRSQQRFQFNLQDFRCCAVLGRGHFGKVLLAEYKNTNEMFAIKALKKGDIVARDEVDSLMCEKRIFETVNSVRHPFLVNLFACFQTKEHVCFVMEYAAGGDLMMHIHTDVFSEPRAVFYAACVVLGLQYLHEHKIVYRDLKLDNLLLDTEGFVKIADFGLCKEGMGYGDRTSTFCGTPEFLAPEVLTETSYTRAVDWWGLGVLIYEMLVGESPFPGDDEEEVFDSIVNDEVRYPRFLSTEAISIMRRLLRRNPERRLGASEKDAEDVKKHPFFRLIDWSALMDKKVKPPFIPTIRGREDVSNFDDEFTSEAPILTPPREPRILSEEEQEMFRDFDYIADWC
# Interleukin-1 receptor-associated kinase 4 (Homo sapiens), sequence (Q9NWZ3 whole entry): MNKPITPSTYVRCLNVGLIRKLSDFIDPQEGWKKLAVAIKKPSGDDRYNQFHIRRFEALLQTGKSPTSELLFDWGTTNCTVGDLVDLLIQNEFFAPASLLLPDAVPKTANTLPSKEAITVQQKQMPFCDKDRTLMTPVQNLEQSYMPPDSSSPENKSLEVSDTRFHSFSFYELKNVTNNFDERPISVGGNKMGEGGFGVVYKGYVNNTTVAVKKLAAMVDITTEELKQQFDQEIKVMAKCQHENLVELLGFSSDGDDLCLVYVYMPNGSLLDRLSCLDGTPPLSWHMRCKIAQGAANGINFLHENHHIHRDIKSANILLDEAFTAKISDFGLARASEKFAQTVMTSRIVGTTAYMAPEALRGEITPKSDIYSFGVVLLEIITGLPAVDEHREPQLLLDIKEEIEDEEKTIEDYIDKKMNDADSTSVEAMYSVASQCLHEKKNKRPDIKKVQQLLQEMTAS
# SRSF protein kinase 1 (Homo sapiens), sequence (Q96SB4 whole entry): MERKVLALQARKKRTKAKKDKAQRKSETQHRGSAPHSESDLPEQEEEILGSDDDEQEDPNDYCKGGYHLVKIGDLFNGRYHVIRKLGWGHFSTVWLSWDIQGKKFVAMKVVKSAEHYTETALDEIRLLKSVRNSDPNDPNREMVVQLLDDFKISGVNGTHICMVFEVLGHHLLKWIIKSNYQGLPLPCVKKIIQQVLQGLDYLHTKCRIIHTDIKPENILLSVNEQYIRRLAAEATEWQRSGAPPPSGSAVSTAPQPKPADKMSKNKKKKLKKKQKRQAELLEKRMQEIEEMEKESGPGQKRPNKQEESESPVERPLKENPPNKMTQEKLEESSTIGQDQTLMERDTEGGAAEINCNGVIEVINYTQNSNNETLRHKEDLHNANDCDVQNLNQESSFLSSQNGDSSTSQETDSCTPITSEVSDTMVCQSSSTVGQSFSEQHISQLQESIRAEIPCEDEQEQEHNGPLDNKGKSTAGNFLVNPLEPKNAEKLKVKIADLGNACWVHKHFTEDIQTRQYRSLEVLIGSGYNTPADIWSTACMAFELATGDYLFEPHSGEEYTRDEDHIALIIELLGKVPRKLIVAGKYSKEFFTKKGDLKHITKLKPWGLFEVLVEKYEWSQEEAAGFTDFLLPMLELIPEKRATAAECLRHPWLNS
smiles,measurement,setting,value
NCCCC[C@@H](NC(=O)[C@@H](CC(=O)O)NC(=O)[C@@H](CC(=O)O)NC(=O)[C@@H](CC(=O)O)NC(=O)[C@@H](CC(=O)O)NC(=O)[C@@H](CC(=O)O)NC(=O)[C@@H](CC(=O)O)NC(=O)CCCCCNC(=O)CCC(=O)Nc1ncc(-c2ccc(C(=O)O)cc2)s1)C(=O)O,Kd,[1],580 pM
same,Activity,[2],62%
same,Activity,[3],69%
same,Activity,[4],69%
same,Activity,[5],69%
same,Activity,[6],78%
same,Activity,[7],83%
same,Activity,[8],85%
same,Activity,[9],87%
same,Activity,[10],88%
same,Activity,[11],88%
same,Activity,[12],96%
same,Activity,[13],102%
same,Activity,[14],102%
same,Activity,[15],103%
same,Activity,[16],104%
same,Activity,[17],105%
same,Activity,[18],107%
same,Activity,[19],109%
same,Activity,[20],143%
